Earlier results on two compounds are cited in paper PMC3653137 (Molecular pharmaceutics, 2013).

Residues, ends and D or L forms follow the SMILES beside them.

One data set deals with BT-20 cells. Particulars: BT-20 human breast carcinoma cells.
A further data set deals with CCRF-CEM cells. Conditions: [WR]4 alone at similar concentrations.
The test system of the next data set is HCT-116 cells. Particulars: [WR]4 alone at similar concentrations.
The next data set deals with SK-OV-3 cells. Particulars: [WR]4 alone at similar concentrations.

Turning to Lys-(CH2)11-Arg-(CH2)11-Arg [LPA4], the “fold enhancement of cellular delivery of F′-GpYEEI by the carrier peptide” value with BT-20 cells is 10 fold.
As to `N=C(N)NCCC[C@@H]1NC(=O)[C@H](Cc2c[nH]c3ccccc23)NC(=O)[C@H](CCCNC(=N)N)NC(=O)[C@H](Cc2c[nH]c3ccccc23)NC(=O)[C@H](CCCNC(=N)N)NC(=O)[C@H](Cc2c[nH]c3ccccc23)NC(=O)[C@H](CCCNC(=N)N)NC(=O)[C@H](Cc2c[nH]c3ccccc23)NC1=O` [[WR]4] (cyclo(RWRWRWRW)), in the data set on CCRF-CEM cells, the “cytotoxicity in CCRF-CEM cells” value is listed as “not cytotoxic”. Moreover, the “cytotoxicity in HCT-116 cells” value in the data set on HCT-116 cells was “not cytotoxic”. The “cytotoxicity in SK-OV-3 cells” value in the data set with SK-OV-3 cells was “not cytotoxic”.
